ChEMBL document CHEMBL4507295 (2021)

Tests used:
[1] = target: Cyclin-dependent kinase 4 (Homo sapiens) (UniProt P11802); conditions: Compound concentration 1000.0 nM
[2] = target: Activin receptor type-1B (Homo sapiens) (UniProt P36896); conditions: Compound concentration 1000.0 nM
[3] = target: Phosphatidylinositol 4-phosphate 5-kinase type-1 alpha (Homo sapiens) (UniProt Q99755); conditions: Compound concentration 1000.0 nM
[4] = target: Serine/threonine-protein kinase RIO2 (Homo sapiens) (UniProt Q9BVS4); conditions: Compound concentration 1000.0 nM
[5] = target: T1, 5-hydroxytryptamine receptor 2C (Homo sapiens) (UniProt P28335); conditions: Compound concentration 10.0 uM
T1 sequence (whole entry): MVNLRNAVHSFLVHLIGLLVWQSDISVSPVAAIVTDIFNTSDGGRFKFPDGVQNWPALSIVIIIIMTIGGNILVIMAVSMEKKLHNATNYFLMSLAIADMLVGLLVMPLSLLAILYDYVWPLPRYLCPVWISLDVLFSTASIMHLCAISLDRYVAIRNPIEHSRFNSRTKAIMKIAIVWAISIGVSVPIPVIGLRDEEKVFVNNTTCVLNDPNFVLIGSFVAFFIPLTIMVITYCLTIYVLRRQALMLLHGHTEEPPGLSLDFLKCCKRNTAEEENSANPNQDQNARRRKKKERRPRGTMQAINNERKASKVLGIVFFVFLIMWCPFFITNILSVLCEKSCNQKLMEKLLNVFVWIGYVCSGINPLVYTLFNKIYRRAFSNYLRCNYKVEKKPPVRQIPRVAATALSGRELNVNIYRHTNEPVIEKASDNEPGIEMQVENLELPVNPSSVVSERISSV

[6] = target: G protein-coupled receptor kinase 4 (Homo sapiens) (UniProt P32298); conditions: Compound concentration 1000.0 nM
[7] = target: MAP/microtubule affinity-regulating kinase 4 (Homo sapiens) (UniProt Q96L34); conditions: Compound concentration 1000.0 nM
[8] = target: Activin receptor type-2A (Homo sapiens) (UniProt P27037); conditions: Compound concentration 1000.0 nM
[9] = target: Aurora kinase A (Homo sapiens) (UniProt O14965); conditions: Compound concentration 1000.0 nM
[10] = target: Serine/threonine-protein kinase 35 (Homo sapiens) (UniProt Q8TDR2); conditions: Compound concentration 1000.0 nM
[11] = target: Serine/threonine-protein kinase WNK1 (Homo sapiens) (UniProt Q9H4A3); conditions: Compound concentration 1000.0 nM
[12] = target: Serine/threonine-protein kinase B-raf (Homo sapiens) (UniProt P15056); conditions: Compound concentration 1000.0 nM
[13] = target: Tyrosine-protein kinase JAK1 (Homo sapiens) (UniProt P23458); conditions: Compound concentration 1000.0 nM
[14] = target: Glycogen synthase kinase-3 beta (Homo sapiens) (UniProt P49841); conditions: Compound concentration 1000.0 nM
[15] = target: Macrophage colony-stimulating factor 1 receptor (Homo sapiens) (UniProt P07333); conditions: Compound concentration 1000.0 nM
[16] = target: Serine/threonine-protein kinase TAO2 (Homo sapiens) (UniProt Q9UL54); conditions: Compound concentration 1000.0 nM
[17] = tested on: Phosphatidylinositol 4,5-bisphosphate 3-kinase catalytic subunit alpha isoform (Homo sapiens), P42336 [H1047Y]; conditions: Compound concentration 1000.0 nM
[18] = target: T2, 5-hydroxytryptamine receptor 3A (Homo sapiens) (UniProt P46098); conditions: Compound concentration 10.0 uM
T2 sequence (whole entry): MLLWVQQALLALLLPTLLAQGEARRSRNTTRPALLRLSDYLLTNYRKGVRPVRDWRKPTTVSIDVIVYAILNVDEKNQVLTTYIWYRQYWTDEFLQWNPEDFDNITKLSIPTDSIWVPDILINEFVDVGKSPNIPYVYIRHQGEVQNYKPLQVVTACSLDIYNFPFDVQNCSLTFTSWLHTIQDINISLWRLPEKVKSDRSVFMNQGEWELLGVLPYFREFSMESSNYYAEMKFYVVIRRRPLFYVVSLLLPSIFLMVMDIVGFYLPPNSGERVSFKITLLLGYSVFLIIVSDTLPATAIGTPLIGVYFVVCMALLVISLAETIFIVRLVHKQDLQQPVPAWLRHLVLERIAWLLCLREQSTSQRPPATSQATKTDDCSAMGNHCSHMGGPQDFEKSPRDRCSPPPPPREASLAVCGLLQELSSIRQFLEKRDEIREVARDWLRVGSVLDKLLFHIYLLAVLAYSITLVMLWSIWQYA

[19] = target: Mitogen-activated protein kinase 4 (Homo sapiens) (UniProt P31152); conditions: Compound concentration 1000.0 nM
[20] = target: Protein-tyrosine kinase 6 (Homo sapiens) (UniProt Q13882); conditions: Compound concentration 1000.0 nM
[21] = target: Cyclin-dependent kinase 9 (Homo sapiens) (UniProt P50750); conditions: Compound concentration 1000.0 nM
[22] = target: Sigma non-opioid intracellular receptor 1 (Homo sapiens) (UniProt Q99720); conditions: Compound concentration 10.0 uM
[23] = target: cAMP-dependent protein kinase catalytic subunit beta (Homo sapiens) (UniProt P22694); conditions: Compound concentration 1000.0 nM
[24] = target: Atypical kinase COQ8A, mitochondrial (Homo sapiens) (UniProt Q8NI60); conditions: Compound concentration 1000.0 nM
[25] = target: 5'-AMP-activated protein kinase catalytic subunit alpha-1 (Homo sapiens) (UniProt Q13131); conditions: Compound concentration 1000.0 nM
[26] = target: Ephrin type-B receptor 1 (Homo sapiens) (UniProt P54762); conditions: Compound concentration 1000.0 nM
[27] = target: Tyrosine-protein kinase BTK (Homo sapiens) (UniProt Q06187); conditions: Compound concentration 1000.0 nM
[28] = target: Casein kinase I isoform gamma-1 (Homo sapiens) (UniProt Q9HCP0); conditions: Compound concentration 1000.0 nM
[29] = target: Mitogen-activated protein kinase 12 (Homo sapiens) (UniProt P53778); conditions: Compound concentration 1000.0 nM
[30] = target: RAF proto-oncogene serine/threonine-protein kinase (Homo sapiens) (UniProt P04049); conditions: Compound concentration 1000.0 nM
[31] = tested on: Mast/stem cell growth factor receptor Kit (Homo sapiens), P10721 [V559D,T670I]; conditions: Compound concentration 1000.0 nM
[32] = tested on: Mast/stem cell growth factor receptor Kit (Homo sapiens), P10721 [A829P]; conditions: Compound concentration 1000.0 nM
[33] = target: Epidermal growth factor receptor (Homo sapiens) (UniProt P00533); conditions: Compound concentration 1000.0 nM

Sequence of Casein kinase I isoform gamma-1 (Homo sapiens) (Q9HCP0 whole entry, looked up, canonical isoform): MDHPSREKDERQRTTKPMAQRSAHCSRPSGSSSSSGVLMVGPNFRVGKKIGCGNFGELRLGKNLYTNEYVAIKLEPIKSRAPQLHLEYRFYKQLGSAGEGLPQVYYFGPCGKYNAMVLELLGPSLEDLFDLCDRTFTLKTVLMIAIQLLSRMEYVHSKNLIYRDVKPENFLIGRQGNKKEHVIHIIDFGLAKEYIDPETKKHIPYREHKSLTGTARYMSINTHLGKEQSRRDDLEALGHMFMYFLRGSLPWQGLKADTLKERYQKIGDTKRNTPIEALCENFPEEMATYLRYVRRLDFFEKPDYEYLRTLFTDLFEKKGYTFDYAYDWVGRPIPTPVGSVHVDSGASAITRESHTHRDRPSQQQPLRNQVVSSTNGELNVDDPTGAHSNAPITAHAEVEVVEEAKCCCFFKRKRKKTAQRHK
Sequence of Mast/stem cell growth factor receptor Kit (Homo sapiens), P10721 [V559D,T670I] (P10721 whole entry V559D/T670I): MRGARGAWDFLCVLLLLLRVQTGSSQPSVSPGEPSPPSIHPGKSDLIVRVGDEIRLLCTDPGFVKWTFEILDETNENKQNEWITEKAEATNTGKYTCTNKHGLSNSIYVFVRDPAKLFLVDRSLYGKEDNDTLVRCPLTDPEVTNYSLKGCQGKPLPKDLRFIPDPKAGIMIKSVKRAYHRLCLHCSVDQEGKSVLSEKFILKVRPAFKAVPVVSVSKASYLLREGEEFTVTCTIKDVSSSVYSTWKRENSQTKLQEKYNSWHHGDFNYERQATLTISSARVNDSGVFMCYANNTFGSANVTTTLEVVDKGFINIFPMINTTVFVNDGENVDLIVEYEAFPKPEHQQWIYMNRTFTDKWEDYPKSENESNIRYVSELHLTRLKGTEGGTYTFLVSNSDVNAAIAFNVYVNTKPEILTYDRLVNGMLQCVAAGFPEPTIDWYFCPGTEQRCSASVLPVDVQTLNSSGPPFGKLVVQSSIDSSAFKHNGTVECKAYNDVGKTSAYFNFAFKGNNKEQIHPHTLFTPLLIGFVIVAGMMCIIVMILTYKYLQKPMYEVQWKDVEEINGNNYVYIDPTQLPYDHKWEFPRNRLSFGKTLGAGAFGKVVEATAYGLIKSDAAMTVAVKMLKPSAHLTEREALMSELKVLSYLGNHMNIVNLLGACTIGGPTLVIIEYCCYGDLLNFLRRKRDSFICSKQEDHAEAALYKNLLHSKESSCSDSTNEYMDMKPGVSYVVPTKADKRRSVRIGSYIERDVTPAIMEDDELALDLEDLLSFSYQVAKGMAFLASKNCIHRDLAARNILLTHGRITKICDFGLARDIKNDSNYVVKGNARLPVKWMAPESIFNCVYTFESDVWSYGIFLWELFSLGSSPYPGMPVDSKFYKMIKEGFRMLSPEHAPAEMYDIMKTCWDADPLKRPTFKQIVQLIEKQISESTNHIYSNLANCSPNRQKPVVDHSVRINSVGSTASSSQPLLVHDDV
Sequence of Serine/threonine-protein kinase 35 (Homo sapiens) (Q8TDR2 whole entry): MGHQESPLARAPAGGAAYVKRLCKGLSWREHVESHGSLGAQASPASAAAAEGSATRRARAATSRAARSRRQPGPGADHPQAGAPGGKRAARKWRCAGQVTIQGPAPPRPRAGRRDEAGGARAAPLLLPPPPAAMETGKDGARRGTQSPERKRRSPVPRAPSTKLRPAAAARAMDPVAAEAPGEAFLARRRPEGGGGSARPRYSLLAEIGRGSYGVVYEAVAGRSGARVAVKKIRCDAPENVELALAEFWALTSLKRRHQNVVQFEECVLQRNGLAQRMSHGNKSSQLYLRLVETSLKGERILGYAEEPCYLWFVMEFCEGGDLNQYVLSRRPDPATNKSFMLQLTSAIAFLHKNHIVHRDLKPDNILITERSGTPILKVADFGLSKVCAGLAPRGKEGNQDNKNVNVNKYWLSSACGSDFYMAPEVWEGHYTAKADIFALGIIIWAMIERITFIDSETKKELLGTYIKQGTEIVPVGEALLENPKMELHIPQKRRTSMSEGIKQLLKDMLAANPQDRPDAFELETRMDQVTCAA
Sequence of Phosphatidylinositol 4-phosphate 5-kinase type-1 alpha (Homo sapiens) (Q99755 whole entry): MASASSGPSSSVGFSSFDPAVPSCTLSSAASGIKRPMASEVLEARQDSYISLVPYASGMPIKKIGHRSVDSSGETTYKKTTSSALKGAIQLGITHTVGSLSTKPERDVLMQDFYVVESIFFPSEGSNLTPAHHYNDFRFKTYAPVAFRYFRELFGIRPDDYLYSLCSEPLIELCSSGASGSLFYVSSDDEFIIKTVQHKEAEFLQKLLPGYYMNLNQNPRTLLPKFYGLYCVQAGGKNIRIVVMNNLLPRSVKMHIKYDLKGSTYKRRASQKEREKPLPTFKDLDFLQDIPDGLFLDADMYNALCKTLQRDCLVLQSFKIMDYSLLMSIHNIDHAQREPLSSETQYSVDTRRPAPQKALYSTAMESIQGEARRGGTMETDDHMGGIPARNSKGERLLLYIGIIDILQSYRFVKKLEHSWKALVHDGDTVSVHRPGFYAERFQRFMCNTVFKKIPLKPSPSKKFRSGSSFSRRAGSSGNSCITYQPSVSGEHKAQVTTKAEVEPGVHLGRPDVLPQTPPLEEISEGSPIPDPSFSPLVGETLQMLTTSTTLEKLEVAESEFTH
Sequence of Cyclin-dependent kinase 9 (Homo sapiens) (P50750 whole entry): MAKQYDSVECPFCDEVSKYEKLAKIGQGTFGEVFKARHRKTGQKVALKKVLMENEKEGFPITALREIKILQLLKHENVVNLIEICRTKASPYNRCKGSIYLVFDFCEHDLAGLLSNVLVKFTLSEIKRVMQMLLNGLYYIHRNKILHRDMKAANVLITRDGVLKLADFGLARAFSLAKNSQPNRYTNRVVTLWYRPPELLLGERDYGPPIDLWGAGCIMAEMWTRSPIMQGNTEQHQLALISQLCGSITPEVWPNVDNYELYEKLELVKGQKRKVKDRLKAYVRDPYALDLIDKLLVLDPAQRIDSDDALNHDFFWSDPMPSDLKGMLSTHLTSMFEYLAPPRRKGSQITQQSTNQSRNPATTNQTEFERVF
Sequence of Serine/threonine-protein kinase B-raf (Homo sapiens) (P15056 whole entry): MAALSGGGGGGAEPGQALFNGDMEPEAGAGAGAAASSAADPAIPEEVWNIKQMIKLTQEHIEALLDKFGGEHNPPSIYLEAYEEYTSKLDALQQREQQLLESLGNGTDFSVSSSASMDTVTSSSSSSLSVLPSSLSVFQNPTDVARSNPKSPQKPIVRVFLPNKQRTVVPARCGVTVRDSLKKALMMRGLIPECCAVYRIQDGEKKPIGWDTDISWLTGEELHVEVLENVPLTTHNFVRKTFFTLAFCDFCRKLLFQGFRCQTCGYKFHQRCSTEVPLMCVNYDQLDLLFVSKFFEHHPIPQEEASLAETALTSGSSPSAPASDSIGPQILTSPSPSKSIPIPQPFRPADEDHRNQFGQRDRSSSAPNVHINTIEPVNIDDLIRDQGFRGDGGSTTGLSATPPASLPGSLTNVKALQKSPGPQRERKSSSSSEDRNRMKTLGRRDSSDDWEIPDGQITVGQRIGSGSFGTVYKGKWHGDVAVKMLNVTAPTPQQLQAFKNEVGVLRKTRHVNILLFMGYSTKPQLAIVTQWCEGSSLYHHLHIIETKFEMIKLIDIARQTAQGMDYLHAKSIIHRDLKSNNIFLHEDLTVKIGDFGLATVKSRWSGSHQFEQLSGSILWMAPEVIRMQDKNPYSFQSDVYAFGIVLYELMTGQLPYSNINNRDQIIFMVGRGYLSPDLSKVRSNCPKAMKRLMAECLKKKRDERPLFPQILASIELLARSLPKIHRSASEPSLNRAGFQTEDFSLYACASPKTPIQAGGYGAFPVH
Sequence of Cyclin-dependent kinase 4 (Homo sapiens) (P11802 whole entry): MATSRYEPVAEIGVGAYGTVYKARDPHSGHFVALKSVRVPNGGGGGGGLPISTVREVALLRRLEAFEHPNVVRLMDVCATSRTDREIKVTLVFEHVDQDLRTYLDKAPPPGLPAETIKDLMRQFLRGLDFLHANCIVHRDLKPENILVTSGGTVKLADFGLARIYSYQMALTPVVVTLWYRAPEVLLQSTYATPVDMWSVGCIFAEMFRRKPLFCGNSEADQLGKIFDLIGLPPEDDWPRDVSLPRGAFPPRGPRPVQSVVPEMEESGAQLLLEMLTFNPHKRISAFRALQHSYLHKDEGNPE
Sequence of Activin receptor type-2A (Homo sapiens) (P27037 whole entry): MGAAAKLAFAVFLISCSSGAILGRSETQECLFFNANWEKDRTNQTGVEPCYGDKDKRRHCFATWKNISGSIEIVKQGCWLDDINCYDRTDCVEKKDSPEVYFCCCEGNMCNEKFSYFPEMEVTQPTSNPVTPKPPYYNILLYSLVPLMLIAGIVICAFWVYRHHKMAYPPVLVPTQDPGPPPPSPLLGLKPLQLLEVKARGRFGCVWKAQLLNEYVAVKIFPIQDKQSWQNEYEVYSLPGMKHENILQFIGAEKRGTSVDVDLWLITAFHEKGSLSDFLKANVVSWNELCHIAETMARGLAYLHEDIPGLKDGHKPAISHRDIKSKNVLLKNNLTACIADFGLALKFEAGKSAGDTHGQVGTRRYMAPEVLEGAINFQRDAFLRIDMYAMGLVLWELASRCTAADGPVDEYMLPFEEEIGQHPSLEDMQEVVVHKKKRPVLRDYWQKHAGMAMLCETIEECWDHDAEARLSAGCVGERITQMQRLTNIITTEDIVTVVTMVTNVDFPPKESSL
Sequence of Activin receptor type-1B (Homo sapiens) (P36896 whole entry): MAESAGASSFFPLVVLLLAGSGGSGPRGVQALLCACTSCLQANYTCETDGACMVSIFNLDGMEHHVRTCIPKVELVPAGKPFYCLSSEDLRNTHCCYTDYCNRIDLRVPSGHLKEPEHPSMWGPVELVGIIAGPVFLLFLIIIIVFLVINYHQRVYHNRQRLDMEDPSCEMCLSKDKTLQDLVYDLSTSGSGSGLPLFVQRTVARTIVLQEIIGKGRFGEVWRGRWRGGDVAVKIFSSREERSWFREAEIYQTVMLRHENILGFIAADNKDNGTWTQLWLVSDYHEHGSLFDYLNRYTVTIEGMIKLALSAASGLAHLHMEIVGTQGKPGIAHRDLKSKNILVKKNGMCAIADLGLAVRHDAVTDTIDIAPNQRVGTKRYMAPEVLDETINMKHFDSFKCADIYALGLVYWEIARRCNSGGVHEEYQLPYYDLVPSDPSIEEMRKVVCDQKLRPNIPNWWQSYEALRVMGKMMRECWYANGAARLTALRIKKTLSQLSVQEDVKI

N#CC1(c2ccccn2)CCN(Cc2cc(C(=O)N3CCCC3)c(=O)n3ccccc23)CC1
inactive: residual activity [1] 98% | residual activity [2] 69% | residual activity [3] 100% | residual activity [4] 95% | inhibition [5] -2.49% | residual activity [6] 86% | residual activity [7] 90% | residual activity [8] 78% | residual activity [9] 90% | residual activity [10] 96% | residual activity [11] 100% | residual activity [12] 100% | residual activity [13] 100% | residual activity [14] 100% | residual activity [15] 94% | residual activity [16] 100% | residual activity [17] 64% | inhibition [18] 6.59% | residual activity [19] 76% | residual activity [20] 82% | residual activity [21] 88% | inhibition [22] 16.3% | residual activity [23] 54% | residual activity [24] 85% | residual activity [25] 100% | residual activity [26] 91% | residual activity [27] 100% | residual activity [28] 79% | residual activity [29] 100% | residual activity [30] 100% | residual activity [31] 88% | residual activity [32] 50% | residual activity [33] 100%

N#CC1(c2ccccn2)CCN(Cc2cc(C(=O)O)c(=O)n3ccccc23)CC1 [MSD-M1PAM]
inactive: residual activity [1] 82% | residual activity [2] 94% | residual activity [3] 100% | residual activity [4] 92% | inhibition [5] 10.5% | residual activity [6] 68% | residual activity [7] 98% | residual activity [8] 95% | residual activity [9] 100% | residual activity [10] 94% | residual activity [11] 97% | residual activity [12] 93% | residual activity [13] 84% | residual activity [14] 100% | residual activity [15] 95% | residual activity [16] 97% | residual activity [17] 100% | inhibition [18] 12% | residual activity [19] 100% | residual activity [20] 100% | residual activity [21] 99% | inhibition [22] 29.1% | residual activity [23] 92% | residual activity [24] 100% | residual activity [25] 100% | residual activity [26] 100% | residual activity [27] 100% | residual activity [28] 100% | residual activity [29] 78% | residual activity [30] 100% | residual activity [31] 100% | residual activity [32] 84% | residual activity [33] 83%
